“And” between values parts separate entries of the source, which are not always exact repeats. Identical values can stand only once. Toxic doses and inconclusive results are not listed.
Test system: BDF1 mice, B16 melanoma ip, median survival T/C
Experiment: NCI In Vivo Anticancer Drug Screen. Data for tumor model B16 Melanoma (intraperitoneal) in B6D2F1 (BDF1) mice
Settings: endpoint: median survival time, higher = longer survival
In short: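 Compounds were tested in mice carrying transplantable tumors. Survival or tumor size was recorded, and each value is the treated-group measurement (T) divided by that of the vehicle-treated control group (C).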

[1] = dose: 100.0 mg/kg/injection, schedule: Q01DX009 (ip), vehicle: Klucel (hydroxypropylcellulose) (HPC)
[2] = dose: 200.0 mg/kg/injection, schedule: Q01DX009 (ip), vehicle: Klucel (hydroxypropylcellulose) (HPC)
[3] = dose: 100.0 mg/kg/injection, schedule: Q01DX009 (ip), vehicle: saline
[4] = dose: 200.0 mg/kg/injection, schedule: Q01DX009 (ip), vehicle: saline
[5] = dose: 400.0 mg/kg/injection, schedule: Q01DX009 (ip), vehicle: saline
[6] = dose: 3.12 mg/kg/injection, schedule: Q01DX009 (ip), vehicle: Klucel (hydroxypropylcellulose) (HPC)
[7] = dose: 6.25 mg/kg/injection, schedule: Q01DX009 (ip), vehicle: Klucel (hydroxypropylcellulose) (HPC)
[8] = dose: 12.5 mg/kg/injection, schedule: Q01DX009 (ip), vehicle: Klucel (hydroxypropylcellulose) (HPC)
[9] = dose: 25.0 mg/kg/injection, schedule: Q01DX009 (ip), vehicle: Klucel (hydroxypropylcellulose) (HPC)
[10] = dose: 50.0 mg/kg/injection, schedule: Q01DX009 (ip), vehicle: Klucel (hydroxypropylcellulose) (HPC)
[11] = dose: 6.25 mg/kg/injection, schedule: Q01DX009 (ip), vehicle: saline
[12] = dose: 12.5 mg/kg/injection, schedule: Q01DX009 (ip), vehicle: saline
[13] = dose: 25.0 mg/kg/injection, schedule: Q01DX009 (ip), vehicle: saline
[14] = dose: 50.0 mg/kg/injection, schedule: Q01DX009 (ip), vehicle: saline
[15] = dose: 100.0 mg/kg/injection, schedule: Q01DX009 (ip), vehicle: saline with Tween-80
[16] = dose: 200.0 mg/kg/injection, schedule: Q01DX009 (ip), vehicle: saline with Tween-80
[17] = dose: 400.0 mg/kg/injection, schedule: Q01DX009 (ip), vehicle: saline with Tween-80
[18] = dose: 12.5 mg/kg/injection, schedule: Q01DX009 (ip), vehicle: saline with Tween-80
[19] = dose: 25.0 mg/kg/injection, schedule: Q01DX009 (ip), vehicle: saline with Tween-80
[20] = dose: 50.0 mg/kg/injection, schedule: Q01DX009 (ip), vehicle: saline with Tween-80
[21] = dose: 25.0 mg/kg/injection, schedule: Q04DX003 (ip), vehicle: Klucel (hydroxypropylcellulose) (HPC)

O=C1OC(=O)C2C1C1C3C=CC3C1C21C=C1 (stereo not given)
T/C [1]: 87 % of control | T/C [2]: 87 % of control

CCN(C=O)CC
T/C [3]: 117 % of control | T/C [4]: 115 % of control | T/C [5]: 107 % of control

C=C(C)C1CCC2(C=O)CCC3(C)C(CCC4C5(C)CCC(O)C(C)(C)C5CCC43C)C12 (stereo not given)
T/C (dose: 18.75 mg/kg/injection, schedule: Q01DX009 (ip), vehicle: Klucel (hydroxypropylcellulose) (HPC)): 94 % of control | T/C (dose: 75.0 mg/kg/injection, schedule: Q01DX009 (ip), vehicle: Klucel (hydroxypropylcellulose) (HPC)): 97 % of control

CNC(=S)N/N=C/CCC/C=N/NC(=S)NC
T/C (dose: 15.9 mg/kg/injection, schedule: Q01DX009 (ip), vehicle: saline with Tween-80): 88 % of control | T/C (dose: 31.8 mg/kg/injection, schedule: Q01DX009 (ip), vehicle: saline with Tween-80): 92 % of control

NC(=O)N1CCN(CCCN2c3ccccc3Sc3cc(Cl)ccc32)CC1
T/C [6]: 92 % of control | T/C [7]: 98 % of control | T/C [8]: 101 % of control | T/C [9]: 106 % of control

Cc1ccccc1N1C(=O)CSC1=S
T/C [8]: 90 % of control | T/C [9]: 93 % of control

O=S1(=O)CC(Cl)(Br)C1 (tested in a mixture with another compound)
T/C [8]: 105 % of control | T/C [9]: 108 % of control | T/C [10]: 108 % of control | T/C [1]: 93 % of control and 108 % of control

CCNC(C)(C)C(S)c1ccc(Cl)s1 (stereo not given)
T/C (dose: 18.75 mg/kg/injection, schedule: Q01DX009 (ip), vehicle: saline with Tween-80): 97 % of control | T/C [9]: 97 % of control | T/C (dose: 37.5 mg/kg/injection, schedule: Q01DX009 (ip), vehicle: saline with Tween-80): 101 % of control | T/C [10]: 101 % of control | T/C (dose: 75.0 mg/kg/injection, schedule: Q01DX009 (ip), vehicle: saline with Tween-80): 100 % of control | T/C [1]: 95 % of control | T/C (dose: 150.0 mg/kg/injection, schedule: Q01DX009 (ip), vehicle: saline with Tween-80): 106 % of control

Cc1ccc(C)n1-c1ccccc1
T/C (dose: 100.0 mg/kg/injection, schedule: Q01DX009 (ip), vehicle: saline + alcohol): 101 % of control | T/C (dose: 200.0 mg/kg/injection, schedule: Q01DX009 (ip), vehicle: saline + alcohol): 99 % of control

CCN(CC)C(C)CN1c2ccccc2Sc2ccccc21 (stereo not given)
T/C [11]: 95 % of control | T/C [12]: 105 % of control | T/C [13]: 105 % of control | T/C [14]: 112 % of control | T/C [3]: 112 % of control

COC1=C(C)C(=O)C2=C(C1=O)C(CO)N1C(C#N)C3CC4C(C1C2N1CCOC41)N3C (stereo not given)
T/C (dose: 0.25 mg/kg/injection, schedule: Q01DX009 (ip), vehicle: saline + alcohol): 117 % of control | T/C (dose: 0.5 mg/kg/injection, schedule: Q01DX009 (ip), vehicle: saline + alcohol): 117 % of control | T/C (dose: 1.0 mg/kg/injection, schedule: Q01DX009 (ip), vehicle: saline + alcohol): 112 % of control

CC(=O)CC(=O)Nc1cccc(C)c1
T/C [1]: 105 % of control | T/C [2]: 100 % of control | T/C (dose: 400.0 mg/kg/injection, schedule: Q01DX009 (ip), vehicle: Klucel (hydroxypropylcellulose) (HPC)): 92 % of control

C=NCC#N
T/C [15]: 93 % of control | T/C [16]: 88 % of control | T/C [17]: 93 % of control

C(=N/NC1=NCCN1)/c1c2ccccc2c(/C=N\NC2=NCCN2)c2ccccc12
T/C (dose: 0.78 mg/kg/injection, schedule: Q01DX009 (ip), vehicle: saline): 156 % of control | T/C (dose: 1.56 mg/kg/injection, schedule: Q01DX009 (ip), vehicle: saline): 181 % of control | T/C (dose: 3.12 mg/kg/injection, schedule: Q01DX009 (ip), vehicle: saline): 205 % of control | T/C [11]: 225 % of control | T/C [12]: 294 % of control

CCCCNC(=O)Nc1ccc(C(=O)OCC(C)C)cc1
T/C [15]: 99 % of control | T/C [16]: 96 % of control

CCCSc1ncnc2nc[nH]c12
T/C [18]: 102 % of control | T/C [19]: 102 % of control | T/C [20]: 97 % of control and 115 % of control | T/C [15]: 107 % of control

Cc1ccc(N=Nc2c(O)ccc3n[nH]nc23)cc1
T/C [1]: 96 % of control

CC/C(CC(C)CC)=N\O (stereo not given)
T/C [3]: 100 % of control | T/C [4]: 94 % of control | T/C [5]: 94 % of control

Cc1ccccc1-n1c(C)nc2ccccc2c1=O
T/C [8]: 92 % of control and 108 % of control | T/C [9]: 92 % of control | T/C [10]: 88 % of control and 90 % of control | T/C [1]: 88 % of control | T/C [2]: 90 % of control

Cc1ccc(NC(=O)c2ccc(Cl)cc2)c(Br)c1
T/C (dose: 100.0 mg/kg/injection, schedule: Q04DX003 (ip), vehicle: saline with Tween-80): 105 % of control | T/C (dose: 200.0 mg/kg/injection, schedule: Q04DX003 (ip), vehicle: saline with Tween-80): 97 % of control | T/C (dose: 400.0 mg/kg/injection, schedule: Q04DX003 (ip), vehicle: saline with Tween-80): 88 % of control

CCCCCCC(=O)CC(SCC)c1ccccc1Cl (stereo not given)
T/C [19]: 107 % of control | T/C [20]: 107 % of control | T/C [15]: 107 % of control | T/C [16]: 100 % of control | T/C [17]: 91 % of control

COC(=O)C1CC(C)(C)N(C)C1(C)C (stereo not given)
T/C [10]: 93 % of control | T/C [1]: 94 % of control

CCCCCc1ccc(C(=O)O)cc1
T/C [19]: 105 % of control | T/C [20]: 102 % of control | T/C [15]: 111 % of control

COC(=O)[CH](C[N+](=O)[O-])[Hg][Cl] (stereo not given)
T/C (dose: 3.2 mg/kg/injection, schedule: Q01DX009 (ip), vehicle: saline with Tween-80): 95 % of control | T/C [11]: 102 % of control | T/C (dose: 6.3 mg/kg/injection, schedule: Q01DX009 (ip), vehicle: saline with Tween-80): 91 % of control | T/C [18]: 89 % of control | T/C [12]: 93 % of control | T/C (dose: 12.5 mg/kg/injection, schedule: Q04DX003 (ip), vehicle: Klucel (hydroxypropylcellulose) (HPC)): 94 % of control | T/C [13]: 89 % of control | T/C [21]: 92 % of control

COc1ccc2nc3cc(Cl)ccc3c(NCCNCCNCCNc3c4ccc(Cl)cc4nc4ccc(OC)cc34)c2c1
T/C [6]: 103 % of control | T/C [7]: 107 % of control | T/C [8]: 113 % of control | T/C [18]: 164 % of control | T/C [12]: 155 % of control | T/C [9]: 113 % of control | T/C [19]: 160 % of control | T/C [13]: 150 % of control | T/C [10]: 113 % of control | T/C [20]: 119 % of control | T/C [15]: 90 % of control

CCc1ccc(C(C)(C)C)cc1
T/C [21]: 103 % of control | T/C (dose: 50.0 mg/kg/injection, schedule: Q04DX003 (ip), vehicle: Klucel (hydroxypropylcellulose) (HPC)): 93 % of control | T/C (dose: 100.0 mg/kg/injection, schedule: Q04DX003 (ip), vehicle: Klucel (hydroxypropylcellulose) (HPC)): 101 % of control | T/C (dose: 200.0 mg/kg/injection, schedule: Q04DX003 (ip), vehicle: Klucel (hydroxypropylcellulose) (HPC)): 100 % of control

COC(=O)C(Br)C1CCCCC1 (stereo not given)
T/C [20]: 100 % of control | T/C [15]: 103 % of control | T/C [16]: 99 % of control

Cc1c(NCO)c(=O)n(-c2ccccc2)n1C
T/C [3]: 102 % of control | T/C [4]: 94 % of control | T/C [5]: 91 % of control

Cc1ccn(C(N)=O)n1
T/C [1]: 93 % of control | T/C [2]: 109 % of control

O=c1[nH]c2ccccc2nc1CBr
T/C (dose: 0.38 mg/kg/injection, schedule: Q01DX009 (ip), vehicle: saline with Tween-80): 104 % of control | T/C (dose: 0.75 mg/kg/injection, schedule: Q01DX009 (ip), vehicle: saline with Tween-80): 100 % of control | T/C (dose: 1.5 mg/kg/injection, schedule: Q01DX009 (ip), vehicle: saline with Tween-80): 104 % of control | T/C (dose: 3.0 mg/kg/injection, schedule: Q01DX009 (ip), vehicle: saline with Tween-80): 92 % of control

Cc1[nH]c(=O)[nH]c(=O)c1NC(=O)c1ccccc1[N+](=O)[O-]
T/C [18]: 100 % of control | T/C [19]: 102 % of control | T/C [20]: 102 % of control

Cc1cc(Cl)ccc1NC(=O)CCl
T/C [15]: 100 % of control | T/C [16]: 95 % of control

CC(C)C(=O)OCC1OC(n2cnc3c(=S)nc(N)[nH]c32)C(OC(=O)C(C)C)C1OC(=O)C(C)C (stereo not given)
T/C (dose: 3.13 mg/kg/injection, schedule: Q01DX009 (ip), vehicle: saline with Tween-80): 114 % of control | T/C (dose: 6.25 mg/kg/injection, schedule: Q01DX009 (ip), vehicle: saline with Tween-80): 108 % of control | T/C [18]: 110 % of control

O=[N+]([O-])O.[Ga]
T/C [14]: 102 % of control | T/C [3]: 92 % of control

— PubChem BioAssay AID192 (DTP/NCI, 2004)
